From ChEMBL document CHEMBL1201862, “PubChem BioAssay data set” (2004)
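Compound exposure: 48 hours, 5 concentrations, 96-well plates. Here, GI50 denotes the concentration required for 50% inhibition of growth.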 The source made the active and inactive calls. Cut-off read from the data, not from the text of the source: active = GI50 up to about 1.1 µM and inactive = higher.

Key:
Assay in all cases: growth of human tumour cells (NCI), 48 h
[1] = tested on: 786-0
[2] = tested on: A498
[3] = tested on: A549
[4] = tested on: ACHN
[5] = tested on: BT-549
[6] = tested on: CAKI-1
[7] = tested on: CCRF-CEM
[8] = tested on: COLO 205
[9] = tested on: DU-145
[10] = tested on: EKVX
[11] = tested on: HCC 2998
[12] = tested on: HCT-116
[13] = tested on: HCT-15
[14] = tested on: HL-60
[15] = tested on: HOP-62
[16] = tested on: HOP-92
[17] = tested on: HT-29
[18] = tested on: Hs-578T
[19] = tested on: IGROV-1
[20] = tested on: K562
[21] = tested on: KM12
[22] = tested on: LOX IMVI
[23] = tested on: M14
[24] = tested on: MCF7
[25] = tested on: MDA-MB-231
[26] = tested on: MDA-MB-435
[27] = tested on: MDA-N
[28] = tested on: MOLT-4
[29] = tested on: Malme-3M
[30] = tested on: NCI-H226
[31] = tested on: NCI-H23
[32] = tested on: NCI-H460
[33] = tested on: NCI-H522
[34] = tested on: NCI/ADR-RES
[35] = tested on: OVCAR-3
[36] = tested on: OVCAR-4
[37] = tested on: OVCAR-5
[38] = tested on: OVCAR-8
[39] = tested on: PC-3
[40] = tested on: RPMI-8226
[41] = tested on: RXF 393
[42] = tested on: SF-268
[43] = tested on: SF-295
[44] = tested on: SF-539
[45] = tested on: SK-MEL-28
[46] = tested on: SK-MEL-2
[47] = tested on: SK-MEL-5
[48] = tested on: SK-OV-3
[49] = tested on: SN12C
[50] = tested on: SNB-19
[51] = tested on: SNB-75
[52] = tested on: SR
[53] = tested on: SW-620
[54] = tested on: T47D
[55] = tested on: TK-10
[56] = tested on: U-251
[57] = tested on: UACC-257
[58] = tested on: UACC-62
[59] = tested on: UO-31

Structure (SMILES): COC(=O)C1SC[C@H]2C(=O)N(c3ccccc3)C(=O)N12 (stereo partly drawn)
- GI50 [1]: > 100 µM (inactive)
- GI50 [2]: 21.4 µM (inactive)
- GI50 [3]: > 100 µM (inactive)
- GI50 [4]: > 100 µM (inactive)
- GI50 [5]: > 100 µM (inactive)
- GI50 [6]: > 100 µM (inactive)
- GI50 [7]: > 100 µM (inactive)
- GI50 [8]: > 100 µM (inactive)
- GI50 [9]: > 100 µM (inactive)
- GI50 [10]: > 100 µM (inactive)
- GI50 [11]: > 100 µM (inactive)
- GI50 [12]: > 100 µM (inactive)
- GI50 [13]: > 100 µM
- GI50 [14]: > 100 µM (inactive)
- GI50 [15]: > 100 µM (inactive)
- GI50 [16]: 85.3 µM (inactive)
- GI50 [17]: > 100 µM (inactive)
- GI50 [18]: > 100 µM (inactive)
- GI50 [19]: > 100 µM (inactive)
- GI50 [20]: > 100 µM (inactive)
- GI50 [21]: > 100 µM (inactive)
- GI50 [22]: > 100 µM (inactive)
- GI50 [23]: > 100 µM (inactive)
- GI50 [24]: > 100 µM (inactive)
- GI50 [25]: > 100 µM (inactive)
- GI50 [26]: > 100 µM (inactive)
- GI50 [27]: > 100 µM (inactive)
- GI50 [28]: > 100 µM (inactive)
- GI50 [29]: > 100 µM (inactive)
- GI50 [30]: > 100 µM (inactive)
- GI50 [31]: > 100 µM (inactive)
- GI50 [32]: > 100 µM (inactive)
- GI50 [33]: > 100 µM (inactive)
- GI50 [34]: > 100 µM (inactive)
- GI50 [35]: > 100 µM (inactive)
- GI50 [36]: > 100 µM (inactive)
- GI50 [37]: > 100 µM (inactive)
- GI50 [38]: > 100 µM (inactive)
- GI50 [39]: > 100 µM (inactive)
- GI50 [40]: > 100 µM (inactive)
- GI50 [41]: > 100 µM (inactive)
- GI50 [42]: > 100 µM (inactive)
- GI50 [43]: > 100 µM (inactive)
- GI50 [44]: > 100 µM (inactive)
- GI50 [45]: > 100 µM (inactive)
- GI50 [46]: > 100 µM (inactive)
- GI50 [47]: > 100 µM (inactive)
- GI50 [48]: > 100 µM (inactive)
- GI50 [49]: > 100 µM (inactive)
- GI50 [50]: > 100 µM (inactive)
- GI50 [51]: > 100 µM (inactive)
- GI50 [52]: > 100 µM (inactive)
- GI50 [53]: > 100 µM (inactive)
- GI50 [54]: > 100 µM (inactive)
- GI50 [55]: > 100 µM (inactive)
- GI50 [56]: > 100 µM (inactive)
- GI50 [57]: > 100 µM (inactive)
- GI50 [58]: > 100 µM (inactive)
- GI50 [59]: > 100 µM (inactive)

Structure (SMILES): CCCCCCCCCCCCCCC[C@@H](O)C[N+](C)(C)CCO
- GI50 [1]: 0.927 µM (active)
- GI50 [2]: 19.1 µM (inactive)
- GI50 [3]: 3.49 µM (inactive)
- GI50 [4]: 3.95 µM (inactive)
- GI50 [5]: 0.759 µM (active)
- GI50 [6]: 0.977 µM (active)
- GI50 [7]: 1.25 µM (inactive)
- GI50 [8]: 2.57 µM (inactive)
- GI50 [9]: 7.66 µM (inactive)
- GI50 [10]: 8.77 µM (inactive)
- GI50 [11]: 1.8 µM (inactive)
- GI50 [12]: 3.99 µM (inactive)
- GI50 [13]: 2.6 µM
- GI50 [14]: 0.149 µM (active)
- GI50 [15]: 2.88 µM (inactive)
- GI50 [16]: 1.27 µM (inactive)
- GI50 [17]: 1.2 µM (inactive)
- GI50 [18]: 1.38 µM (inactive)
- GI50 [19]: 0.434 µM (active)
- GI50 [20]: 2.41 µM (inactive)
- GI50 [21]: 0.841 µM (active)
- GI50 [22]: 2.07 µM (inactive)
- GI50 [23]: 3.62 µM (inactive)
- GI50 [24]: 5.85 µM (inactive)
- GI50 [25]: 1.8 µM (inactive)
- GI50 [26]: 4.84 µM (inactive)
- GI50 [27]: 5.98 µM (inactive)
- GI50 [28]: 2.17 µM (inactive)
- GI50 [29]: 2.81 µM (inactive)
- GI50 [30]: 2.79 µM (inactive)
- GI50 [31]: 2.06 µM (inactive)
- GI50 [32]: 1.52 µM (inactive)
- GI50 [33]: 1.42 µM (inactive)
- GI50 [34]: 13.6 µM (inactive)
- GI50 [35]: 4.42 µM (inactive)
- GI50 [36]: 4.2 µM (inactive)
- GI50 [37]: 2.24 µM (inactive)
- GI50 [38]: 5.13 µM (inactive)
- GI50 [39]: 1.06 µM (active)
- GI50 [40]: 2.21 µM (inactive)
- GI50 [41]: 1.11 µM (active)
- GI50 [42]: 1.72 µM (inactive)
- GI50 [43]: 2.37 µM (inactive)
- GI50 [44]: 2.39 µM (inactive)
- GI50 [45]: 19.3 µM (inactive)
- GI50 [46]: 9.55 µM (inactive)
- GI50 [47]: 2.72 µM (inactive)
- GI50 [48]: 7.76 µM (inactive)
- GI50 [49]: 5.61 µM (inactive)
- GI50 [50]: 1.63 µM (inactive)
- GI50 [51]: 0.597 µM (active)
- GI50 [52]: 1.72 µM (inactive)
- GI50 [53]: 4.14 µM (inactive)
- GI50 [54]: 6.82 µM (inactive)
- GI50 [55]: 1.31 µM (inactive)
- GI50 [56]: 1.73 µM (inactive)
- GI50 [57]: 10.2 µM (inactive)
- GI50 [58]: 3.92 µM (inactive)
- GI50 [59]: 7.01 µM (inactive)
